Several values for one entry are separate records, joined by “and”; a condition that tells them apart may be missing. Equal values may be shown once.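 Exposure lasted 48 hours, with cells grown in 96-well plates and compounds tested at five concentrations. At the GI50, growth is halved. The concentration for full growth arrest is given as TGI.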
Tests used:
Experiment in all cases: growth of human tumour cells (NCI), 48 h
[1] = system: SNB-78 CNS
[2] = system: XF 498 CNS
[3] = system: DMS 273 small cell lung
[4] = system: LXFL 529 NSCLC
[5] = system: HOP-18 NSCLC
[6] = system: DU-145 prostate
[7] = system: BT-549 breast
[8] = system: NCI/ADR-RES ovarian
[9] = system: MCF7 breast
[10] = system: MDA-MB-231 breast

Row | Compound | TGI [1] [µM] | TGI [2] | TGI [3] [µM] | TGI [4] | TGI [5] [µM] | TGI [6] [µM] | TGI [7] [µM] | TGI [8] [µM] | TGI [9] [µM] | TGI [10] [µM] | further results
1 | COc1ccc(C(c2ccc(C(C)C)cc(=O)c2O)c2ccc3cccnc3c2O)cc1 (stereo not drawn) | 23.2 | 16.4 µM | 2.08 | 15.7 µM | – | – | – | – | – | – | –
2 | COC(=O)C1(C(=O)OC)CC2c3c(c4ccccc4n3C)CC(C1=O)N2Cc1ccccc1 (stereo not drawn) | > 100 | > 100 µM | > 100 | > 100 µM | – | – | – | – | – | – | –
3 | ClC1CCC2OOC1O2 (stereo not drawn) | > 100 | – | > 100 | – | – | – | – | – | – | – | –
4 | Cc1oc2c(C)c(O)c3c(c2c1C1(C)OCCO1)C(=O)C=C(Cl)C3=O | > 100 | > 100 µM | > 100 | > 100 µM | – | – | – | – | – | – | –
5 | CC(=O)NC(CCCCNC(=O)N(CCCl)N=O)C(=O)NCc1ccccc1 (stereo not drawn) | – | > 100 µM | > 100 | > 100 µM | > 100 | – | – | – | – | – | –
6 | COc1cc2nc(Sc3c([N+](=O)[O-])ncn3C)[nH]c2cc1OC | > 100 | 49.2 µM | – | 32 µM | > 100 | – | – | – | – | – | –
7 | COc1cc2ccc3c4c(OC)cc(OC)c(OC)c4c(=O)n(C)c3c2cc1OC | 32.5 | 7.16 µM and 61.2 µM | – | 2.86 µM and > 26.8 µM | > 100 | – | – | – | – | – | GI50 [2]: 5.27 µM; GI50 [3]: 22.2 µM; GI50 [4]: 0.766 µM
8 | C[C@@H](CO)OCOCc1ccccc1 | > 100 | > 100 µM | > 100 | > 100 µM | – | – | – | – | – | – | –
9 | COc1ccc(NC(=O)C(=O)C2CNC(=O)NC2=O)c(OC)c1 (stereo not drawn) | > 100 | > 100 µM | > 100 | > 100 µM | > 100 | – | – | – | – | – | –
10 | CCOc1ccccc1N=Nc1c(-c2ccccc2)nn(C(=O)CC(=O)Nc2cccc(Cl)c2)c1-c1ccccc1 | > 100 | > 100 µM | > 100 | > 100 µM | > 100 | – | – | – | – | – | –
11 | CCOC(=O)c1c(C)nc2ccc(Cl)cc2c1-c1ccccc1 | – | – | – | – | – | > 100 | 57.2 | 80.2 | 70.4 | 38.4 | GI50 [6]: 31.6 µM; GI50 [7]: 22.5 µM; GI50 [8]: 22.2 µM; GI50 [9]: 24 µM; GI50 [10]: 17.1 µM
12 | CC(C)NCC(O)COC(=O)c1cccs1 (stereo not drawn) | > 100 | > 100 µM | > 100 | > 100 µM | – | – | – | – | – | – | –
13 | O=C(Nc1ccccc1)Nc1cccc(-n2cc(-c3ccncc3)c(-c3ccc(O)c(Cl)c3)n2)c1 | – | – | – | – | – | > 100 | 12.7 | 82.6 | 17.8 | 5.23 | GI50 [6]: 5.66 µM; GI50 [7]: 3.29 µM; GI50 [8]: 6.49 µM; GI50 [9]: 2.75 µM; GI50 [10]: 1.98 µM
14 | Cc1ccccc1NC(=O)C(=O)C(c1cnc2ccc([N+](=O)[O-])cc2n1)[N+](=O)[O-] (stereo not drawn) | > 100 | – | > 100 | – | > 100 | – | – | – | – | – | –
15 | COC(=O)C1=CN=C(C(=O)OC)NN1 | – | > 100 µM | – | > 100 µM | > 100 | – | – | – | – | – | –
16 | CCc1ccccc1NC(=O)CCc1n[nH]c(=S)o1 | > 100 | – | > 100 | > 100 µM | > 100 | – | – | – | – | – | –

Row | Compound | TGI [1] [µM] | TGI [2] | TGI [3] [µM] | TGI [4] | TGI [5] [µM] | TGI [6] [µM] | TGI [7] [µM] | TGI [8] [µM] | TGI [9] [µM] | TGI [10] [µM] | further results
17 | S=c1nc2[nH]ncc2c(N/N=C/c2ccccc2)[nH]1 | – | – | – | – | – | > 100 | > 100 | > 100 | 47 | 71.4 | GI50 [6]: > 100 µM; GI50 [7]: > 100 µM; GI50 [8]: > 100 µM; GI50 [9]: 32 µM; GI50 [10]: 19.8 µM
18 | Cc1c(C(=O)CC(=O)C(=O)Nc2ccc(Cl)c(Cl)c2)[n+](=O)c2ccccc2n1[O-] | > 100 | – | 49.9 | 32.4 µM | – | – | – | – | – | – | –
19 | Cn1cccc1-c1cc(-c2cccs2)[nH]c(=O)c1C#N | – | – | – | – | – | > 100 | > 100 | > 100 | > 100 | > 100 | GI50 [6]: > 100 µM; GI50 [7]: > 100 µM; GI50 [8]: > 100 µM; GI50 [9]: > 100 µM; GI50 [10]: > 100 µM
20 | COC(=O)C(C(=O)C(=O)NC1=C(Cl)C(=O)c2ccccc2C1=O)c1csc(-n2nc(-c3ccccc3)cc2-c2ccccc2)n1 (stereo not drawn) | > 100 | > 100 µM | > 100 | > 100 µM | > 100 | – | – | – | – | – | –
21 | Cc1cc(C)c(O)c(Cc2cccc(Cc3cc(C)cc(C)c3O)c2O)c1 | – | – | – | – | – | > 100 | > 100 | > 100 | > 100 | > 100 | –
22 | COC(=O)N/N=C(/CCN1CCCC1)CC(c1ccccc1)c1c(O)c2ccccc2oc1=O (stereo not drawn) | > 100 | > 100 µM | > 100 | > 100 µM | > 100 | – | – | – | – | – | –
23 | O=C1C(=O)c2ccccc2-c2ccccc21 | – | – | – | – | – | 3.07 | 3.07 | 2.9 | 3.8 | 3.19 | GI50 [6]: 1.68 µM; GI50 [7]: 1.66 µM; GI50 [8]: 0.543 µM; GI50 [9]: 1.67 µM; GI50 [10]: 1.42 µM
24 | NC(=O)N/N=C(\C(=O)C(=O)Nc1ccc(Cl)c(C(F)(F)F)c1)c1nc2ccc(C(=O)c3ccccc3)cc2[nH]c1=O | > 100 | 64.1 µM | > 100 | – | > 100 | – | – | – | – | – | –
25 | N/C(=N\N=C\c1cccs1)NO | > 100 | > 100 µM | > 100 | > 100 µM | > 100 | – | – | – | – | – | –
26 | O=[N+]([O-])c1cc(CCl)ccc1CCl | – | – | – | – | – | 2.99 | 11.1 | 8.84 | 3.28 | 4.5 | –
27 | COc1cc(-c2cc(=O)c3ccccc3o2)ccc1N | > 100 | > 100 µM | > 100 | > 100 µM | > 100 | – | – | – | – | – | –
28 | COc1ccc(-c2nn(-c3cccc(NC(=O)Nc4ccc(Cl)c(C(F)(F)F)c4)c3)cc2-c2ccncc2)cc1Cl | – | – | – | – | – | > 100 | 4.83 | 9.84 | 13.7 | 7.35 | GI50 [6]: 4.47 µM; GI50 [7]: 2.08 µM; GI50 [8]: 2.62 µM; GI50 [9]: 2.19 µM; GI50 [10]: 2.29 µM
29 | O=c1cc(-c2ccc(Cl)cc2)[nH]c2ncccc12 | – | – | – | – | – | > 100 | > 100 | > 100 | > 100 | > 100 | –
30 | O=C1C(=O)N(C(=O)c2ccc(Cl)c(Cl)c2)c2ccc(Cl)cc21 | > 100 | – | > 100 | > 100 µM | > 100 | – | – | – | – | – | –
31 | Clc1cc(Cl)c(Cl)c(-c2nc(-c3cccnc3)cs2)c1 | – | – | – | – | – | 96.2 | 70.2 | > 100 | > 100 | > 100 | GI50 [6]: 2.55 µM; GI50 [7]: 20.6 µM; GI50 [8]: 8.78 µM; GI50 [9]: 10.4 µM; GI50 [10]: 53 µM
